# Results taken from patent US20260166039A1 (SCHRÖDINGER, INC., priority 2022, published 2026).
# What was measured:
# Wee1 kinase domain = molecular target: T1, Wee1 kinase domain (Homo sapiens, UniProt P30291); assay: Wee1 Kinase Biochemical Assay (ADP-Glo); conditions: class symbols; 1 nM Wee1 enzyme, 15 uM ATP, 4 hours at 25° C.
# T1 construct: Wee1 kinase domain was purchased from Carna (catalog #05-177); purchased Carna 05-177
# How it was run: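 The reaction mix held 1 nM Wee1 kinase domain, 15 uM ATP and 2 ng/mL Poly(Lys,Tyr 4:1) substrate and was left for 4 hours at 25 °C. ADP production was then measured with ADP-Glo, and percent inhibition was derived relative to DMSO and a saturating Wee1 inhibitor.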
# [1] = system: phosphorylation of Cdc2 Y15 (Wee1 substrate) in A427 cells; assay: Phosphorylated Cdc2 MSD Electrochemiluminescence Assay; assay type: cell-based; conditions: Homo sapiens, A-427, class symbols, read-out: A427 pCDC2 MSD IC50
# How it was run: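 Read-out: percent residual phospho-Cdc2 Y15 relative to DMSO and positive-control Wee1 inhibitor, measured by MSD electrochemiluminescence capture/detection antibody assay in cell lysates. A427 cells received duplicate 3-fold compound dilution series 20 h post-seeding, with 6 h total incubation at 37 °C.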
# T1 sequence (P30291 299-569 limits assumed): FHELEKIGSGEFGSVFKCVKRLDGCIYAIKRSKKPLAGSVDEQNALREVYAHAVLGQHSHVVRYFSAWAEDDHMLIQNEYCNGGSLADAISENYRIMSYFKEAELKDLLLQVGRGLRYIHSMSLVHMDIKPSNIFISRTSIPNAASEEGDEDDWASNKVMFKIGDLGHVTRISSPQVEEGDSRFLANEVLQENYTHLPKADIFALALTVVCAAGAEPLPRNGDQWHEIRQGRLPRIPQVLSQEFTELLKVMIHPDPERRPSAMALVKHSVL
SMILES,IC50 (Wee1 kinase domain) [nM],IC50 [1] [nM]
"CN1C[C@@H]2CN(c3ccc(Nc4ncc5c(n4)N(c4cccc(N6CCCC6=O)n4)[C@@H]4CC(C)(C)OC[C@]54C)cc3)C[C@@H]2C1 [Example 694, 1-(6-((4bR,8aR)-4b,7,7-trimethyl-2-((4-((3aR,6aS)-5-methylhexahydropyrrolo[3,4-c]pyrrol-2(1H)-yl)phenyl)amino)-4b,7,8,8a-tetrahydropyrano[3′,4′:4,5]pyrrolo[2,3-d]pyrimidin-9(5H)-yl)pyridin-2-yl)pyrrolidin-2-one]",< 10,100 to 1000
"CN1CC(c2ccc(Nc3ncc4c(n3)N(c3cccc(N5CCCC5=O)n3)[C@@H]3CC(C)(C)OC[C@]43C)cc2)C1 [Example 696, 1-(6-((4bR,8aR)-4b,7,7-trimethyl-2-((4-(1-methylazetidin-3-yl)phenyl)amino)-4b,7,8,8a-tetrahydropyrano[3′,4′:4,5]pyrrolo[2,3-d]pyrimidin-9(5H)-yl)pyridin-2-yl)pyrrolidin-2-one]",< 10,100 to 1000
"CN1[C@@H]2C[C@H]1CN(c1ccc(Nc3ncc4c(n3)N(c3cccc(N5CCOC5=O)n3)[C@@H]3CC(C)(C)OC[C@]43C)cc1)C2 [Example 700, 3-(6-((4bR,8aR)-4b,7,7-trimethyl-2-((4-((1R,5S)-6-methyl-3,6-diazabicyclo[3.1.1]heptan-3-yl)phenyl)amino)-4b,7,8,8a-tetrahydropyrano[3′,4′:4,5]pyrrolo[2,3-d]pyrimidin-9(5H)-yl)pyridin-2-yl)oxazolidin-2-one]",< 10,100 to 1000
"CN1[C@@H]2C[C@H]1CN(c1ccc(Nc3ncc4c(n3)N(c3cccc(N5CCCC5=O)n3)[C@@H]3CC(C)(C)OC[C@]43C)cc1)C2 [Example 703, 1-(6-((4bR,8aR)-4b,7,7-trimethyl-2-((4-((1R,5S)-6-methyl-3,6-diazabicyclo[3.1.1]heptan-3-yl)phenyl)amino)-4b,7,8,8a-tetrahydropyrano[3′,4′:4,5]pyrrolo[2,3-d]pyrimidin-9(5H)-yl)pyridin-2-yl)pyrrolidin-2-one]",< 10,100 to 1000

# Other lines, results leading:
IC50 (Wee1 kinase domain) [nM],IC50 [1] [nM],SMILES
< 10,100 to 1000,"CN1CC(c2ccc(Nc3ncc4c(n3)N(c3cccc(N5CCOC5=O)n3)[C@@H]3CC(C)(C)OC[C@]43C)cc2)C1 [Example 698, 3-(6-((4bR,8aR)-4b,7,7-trimethyl-2-((4-(1-methylazetidin-3-yl)phenyl)amino)-4b,7,8,8a-tetrahydropyrano[3′,4′:4,5]pyrrolo[2,3-d]pyrimidin-9(5H)-yl)pyridin-2-yl)oxazolidin-2-one]"
< 10,100 to 1000,"CN1CC[C@@H]2CN(c3ccc(Nc4ncc5c(n4)N(c4cccc(N6CCOC6=O)n4)[C@@H]4CC(C)(C)OC[C@]54C)cc3)C[C@@H]21 [Example 705, 3-(6-((4bR,8aR)-4b,7,7-trimethyl-2-((4-((3aR,6aR)-1-methylhexahydropyrrolo[3,4-b]pyrrol-5(1H)-yl)phenyl)amino)-4b,7,8,8a-tetrahydropyrano[3′,4′:4,5]pyrrolo[2,3-d]pyrimidin-9(5H)-yl)pyridin-2-yl)oxazolidin-2-one]"
< 10,100 to 1000,"CN1CC2(C1)CN(c1ccc(Nc3ncc4c(n3)N(c3cccc(N5CCOC5=O)n3)[C@@H]3CC(C)(C)OC[C@]43C)cc1)C2 [Example 707, 3-(6-((4bR,8aR)-4b,7,7-trimethyl-2-((4-(6-methyl-2,6-diazaspiro[3.3]heptan-2-yl)phenyl)amino)-4b,7,8,8a-tetrahydropyrano[3′,4′:4,5]pyrrolo[2,3-d]pyrimidin-9(5H)-yl)pyridin-2-yl)oxazolidin-2-one]"
< 10,1000 to 10000,"CN1CCC(c2ccc(Nc3ncc4c(n3)N(c3cccc(N=S(C)(C)=O)c3)[C@@H]3CC(C)(C)OC[C@]43C)cn2)CC1 [Example 710, dimethyl((3-((4bR,8aR)-4b,7,7-trimethyl-2-((6-(1-methylpiperidin-4-yl)pyridin-3-yl)amino)-4b,7,8,8a-tetrahydropyrano[3′,4′:4,5]pyrrolo[2,3-d]pyrimidin-9(5H)-yl)phenyl)imino)-16-sulfanone]"
